Measured values reported in US10913738B2 (BRISTOL-MYERS SQUIBB COMPANY, priority 2017, dated 2021).
Read-outs that look alike come from different tables or passages of the source.

Legend:
[1] = target: T1, His-GST-TVMV-hRIPK1(1-324) (Homo sapiens, UniProt Q13546); experiment: RIPK1 HTRF Binding Assay
T1 construct: The coding region of human RIPK1(1-324) flanked by NdeI site at 5′ end; made in house; host or cells: Spodoptera frugiperda (Sf9) insect cells, baculovirus
T1 sequence (Q13546 1-324): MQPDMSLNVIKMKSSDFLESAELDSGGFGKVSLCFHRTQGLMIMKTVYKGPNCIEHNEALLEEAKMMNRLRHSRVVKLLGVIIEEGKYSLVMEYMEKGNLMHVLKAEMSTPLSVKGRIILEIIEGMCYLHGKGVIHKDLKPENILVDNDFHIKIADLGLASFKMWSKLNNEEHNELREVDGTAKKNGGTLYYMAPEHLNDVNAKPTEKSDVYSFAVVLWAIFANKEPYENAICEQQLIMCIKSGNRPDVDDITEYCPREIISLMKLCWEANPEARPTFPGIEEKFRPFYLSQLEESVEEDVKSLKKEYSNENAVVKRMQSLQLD

[2] = system: MLKL phosphorylation in HT29-L23 human colorectal adenocarcinoma cells; experiment: MLKL Phosphorylation High-Content Assay; assay type: cell-based; conditions: Homo sapiens
Summary of the method: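 Cells incubated six hours at 37° C., then phospho-MLKL (S358) immunostained overnight at 4° C. and imaged by high-content microscopy. Phosphorylation quantified as mean circ-ring average intensity ratio; IC50 and Ymax from 4-parameter logistic fits.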

[3] = x marks IC50 class <20 nM, read-out: RIPK1 HTRF binding <20 nM
[4] = x marks IC50 class <20 nM, read-out: pMLKL cell activity <20 nM
[5] = x marks IC50 class 20-200 nM, read-out: RIPK1 HTRF binding 20-200 nM
[6] = x marks IC50 class >200 nM, read-out: pMLKL cell activity >200 nM
[7] = x marks IC50 class 20-200 nM, read-out: pMLKL cell activity 20-200 nM
[8] = x marks IC50 class >200 nM, read-out: RIPK1 HTRF binding >200 nM

SMILES | IC50 [1, 3] | IC50 [2, 7] | further results
CCOc1ncc(-c2ccn3nc(N)nc3c2)cc1C(=O)NCc1cc(F)ccc1OC1CCCC1 [Example 264, 5-{2-amino-[1,2,4]triazolo[1,5-a]pyridin-7-yl}-N-{[2-(cyclopentyloxy)-5-fluorophenyl]methyl}-2-ethoxypyridine-3-carboxamide] | < 20 nM |  | IC50 [2, 4]: < 20 nM
CCOc1ncc(-c2ccn3nc(N)nc3c2)cc1C(=O)NCc1ccccc1SCC(F)(F)F [Example 265, 5-{2-amino-[1,2,4]triazolo[1,5-a]pyridin-7-yl}-2-ethoxy-N-({2-[(2,2,2-trifluoroethyl)sulfanyl]phenyl}methyl)pyridine-3-carboxamide] |  |  | IC50 [1, 5]: 20 to 200 nM; IC50 [2, 6]: > 200 nM
CCOc1ncc(-c2ccn3nc(N)nc3c2)cc1C(=O)NCc1ccccc1SC(C)C [Example 266, 5-{2-amino-[1,2,4]triazolo[1,5-a]pyridin-7-yl}-2-ethoxy-N-{[2-(propan-2-ylsulfanyl)phenyl]methyl}pyridine-3-carboxamide] | < 20 nM | 20 to 200 nM | 
CCOc1ncc(-c2ccn3nc(N)nc3c2)cc1C(=O)NCc1ccccc1OC1CCCC1 [Example 267, 5-{2-amino-[1,2,4]triazolo[1,5-a]pyridin-7-yl}-N-{[2-(cyclopentyloxy)phenyl]methyl}-2-ethoxypyridine-3-carboxamide] | < 20 nM | 20 to 200 nM | 
CCOc1ncc(-c2ccn3nc(N)nc3c2)cc1C(=O)NCc1ccccc1OCC1CCC1 [Example 268, 5-{2-amino-[1,2,4]triazolo[1,5-a]pyridin-7-yl}-N-{[2-(cyclobutylmethoxy)phenyl]methyl}-2-ethoxypyridine-3-carboxamide] | < 20 nM | 20 to 200 nM | 
CCOc1ncc(-c2ccn3nc(N)nc3c2)cc1C(=O)NCCc1ccccc1Oc1ccccc1 [Example 269, 5-{2-amino-[1,2,4]triazolo[1,5-a]pyridin-7-yl}-2-ethoxy-N-[2-(2-phenoxyphenyl)ethyl]pyridine-3-carboxamide] | < 20 nM | 20 to 200 nM | 
CCOc1ncc(-c2ccn3nc(N)nc3c2)cc1C(=O)NCc1ccccc1S(=O)(=O)c1ccccc1CO [Example 270, 5-{2-amino-[1,2,4]triazolo[1,5-a]pyridin-7-yl}-2-ethoxy-N-({2-[2-(hydroxymethyl)benzenesulfonyl]phenyl}methyl)pyridine-3-carboxamide] | < 20 nM | 20 to 200 nM | 
CCOc1ncc(-c2ccn3nc(N)nc3c2)cc1C(=O)NCc1ccccc1OC(F)F [Example 271, 5-{2-amino-[1,2,4]triazolo[1,5-a]pyridin-7-yl}-N-{[2-(difluoromethoxy)phenyl]methyl}-2-ethoxypyridine-3-carboxamide] |  |  | IC50 [1, 5]: 20 to 200 nM; IC50 [2, 6]: > 200 nM
CCOc1ncc(-c2ccn3nc(N)nc3c2)cc1C(=O)NCc1ccccc1OCC1CC1 [Example 272, 5-{2-amino-[1,2,4]triazolo[1,5-a]pyridin-7-yl}-N-{[2-(cyclopropylmethoxy)phenyl]methyl}-2-ethoxypyridine-3-carboxamide] | < 20 nM | 20 to 200 nM | 
CCOc1ncc(-c2ccn3nc(N)nc3c2)cc1C(=O)NC[C@H]1C[C@@H]1COc1ccc(Br)cc1F [Example 273, 5-{2-amino-[1,2,4]triazolo[1,5-a]pyridin-7-yl}-N-{[(1S,2S)-2-[(4-bromo-2-fluorophenoxy)methyl]cyclopropyl]methyl}-2-ethoxypyridine-3-carboxamide] |  | 20 to 200 nM | IC50 [1, 8]: > 200 nM
CCOc1ncc(-c2ccn3nc(N)nc3c2)cc1C(=O)NCC1(c2ccccc2F)CC1 [Example 274, 5-{2-amino-[1,2,4]triazolo[1,5-a]pyridin-7-yl}-2-ethoxy-N-{[1-(2-fluorophenyl)cyclopropyl]methyl}pyridine-3-carboxamide] |  | 20 to 200 nM | IC50 [1, 8]: > 200 nM
CCOc1ncc(-c2ccn3nc(N)nc3c2)cc1C(=O)NCc1ccccc1Sc1ccccc1CO [Example 275, 5-{2-amino-[1,2,4]triazolo[1,5-a]pyridin-7-yl}-2-ethoxy-N-[(2-{[2-(hydroxymethyl)phenyl]sulfanyl}phenyl)methyl]pyridine-3-carboxamide] | < 20 nM |  | IC50 [2, 4]: < 20 nM
CCOc1ncc(-c2ccn3nc(N)nc3c2)cc1C(=O)NCC[C@@H](O)c1ccc(Cl)cc1 [Example 276, 5-{2-amino-[1,2,4]triazolo[1,5-a]pyridin-7-yl}-N-[(3R)-3-(4-chlorophenyl)-3-hydroxypropyl]-2-ethoxypyridine-3-carboxamide] |  |  | IC50 [1, 8]: > 200 nM; IC50 [2, 6]: > 200 nM
CCOc1ncc(-c2ccn3nc(N)nc3c2)cc1C(=O)NCc1ccccc1Oc1ccccc1 [Example 277, 5-{2-amino-[1,2,4]triazolo[1,5-a]pyridin-7-yl}-2-ethoxy-N-[(2-phenoxyphenyl)methyl]pyridine-3-carboxamide] | < 20 nM |  | IC50 [2, 4]: < 20 nM
CCOc1ncc(-c2ccn3nc(N)nc3c2)cc1C(=O)NCC[C@H](O)c1ccc(Cl)cc1 [Example 278, 5-{2-amino-[1,2,4]triazolo[1,5-a]pyridin-7-yl}-N-[(3S)-3-(4-chlorophenyl)-3-hydroxypropyl]-2-ethoxypyridine-3-carboxamide] |  |  | IC50 [1, 5]: 20 to 200 nM; IC50 [2, 6]: > 200 nM
CCOc1ncc(-c2ccn3nc(N)nc3c2)cc1C(=O)Nc1cnn(Cc2ccccc2)c1 [Example 279, 5-{2-amino-[1,2,4]triazolo[1,5-a]pyridin-7-yl}-N-(1-benzyl-1H-pyrazol-4-yl)-2-ethoxypyridine-3-carboxamide] |  | 20 to 200 nM | IC50 [1, 5]: 20 to 200 nM
CCOc1ncc(-c2ccn3nc(N)nc3c2)cc1C(=O)NCCC(C)c1ccccc1 (stereo not drawn) [Example 280, 5-{2-amino-[1,2,4]triazolo[1,5-a]pyridin-7-yl}-2-ethoxy-N-(3-phenylbutyl)pyridine-3-carboxamide] | < 20 nM | 20 to 200 nM | 
CCOc1ncc(-c2ccn3nc(N)nc3c2)cc1C(=O)NCc1cc(F)cc(F)c1OCC1CC1 [Example 281, 5-{2-amino-[1,2,4]triazolo[1,5-a]pyridin-7-yl}-N-{[2-(cyclopropylmethoxy)-3,5-difluorophenyl]methyl}-2-ethoxypyridine-3-carboxamide] | < 20 nM | 20 to 200 nM | 
[2H]C([2H])([2H])Oc1nc(C)c(-c2ccn3nc(N)nc3c2)cc1C(=O)NCc1cc(F)cc(F)c1OC([2H])([2H])C1CC1 [Example 282, 5-(2-Amino-[1,2,4]triazolo[1,5-a]pyridin-7-yl)-N-(2-(cyclopropylmethoxy-d2)-3,5-difluorobenzyl)-2-(methoxy-d3)-6-methylnicotinamide] | < 20 nM |  | IC50 [2, 4]: < 20 nM
[2H]C([2H])([2H])Oc1ncc(-c2ccn3nc(N)nc3c2)cc1C(=O)NCc1cc(F)cc(F)c1OC([2H])([2H])C1CC1 [Example 283, 5-(2-amino-[1,2,4]triazolo[1,5-a]pyridin-7-yl)-N-(2-(cyclopropylmethoxy-d2)-3,5-difluorobenzyl)-2-(methoxy-H3)nicotinamide] | < 20 nM |  | IC50 [2, 4]: < 20 nM
[2H]C([2H])([2H])Oc1ncc(-c2ccn3nc(N)nc3c2)cc1C(=O)NC([2H])([2H])c1cc(C(F)(F)F)ccc1F [Example 284, 5-(2-amino-[1,2,4]triazolo[1,5-a]pyridin-7-yl)-N-((2-fluoro-5-(trifluoromethyl)phenyl)methyl-d2)-2-(methoxy-d3)nicotinamide] | < 20 nM | 20 to 200 nM | 
